Reference: US9732075B2, “Benzimidazole-proline derivatives” (IDORSIA PHARMACEUTICALS LTD, priority 2012, dated 2017)

Experiments:
human orexin-1 receptor = human orexin-1 receptor (Homo sapiens (Human), UniProt O43613); assay: In vitro assay: intracellular calcium measurements (FLIPR), antagonistic activity; format: cell-based; details: CHO cells expressing human orexin-1 receptor, orexin-A agonist, geometric mean, read-out: IC50 Ox1
Summary of the method: (§1)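 In this FLIPR calcium assay, antagonists were given 120 min on CHO cells with human OX1 or OX2 receptor before orexin-A (3 nM final) was added. Peak fluorescence was measured at 1 s intervals against the uninhibited agonist peak, and IC50s were averaged geometrically.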

human orexin-2 receptor = human orexin-2 receptor (Homo sapiens (Human), UniProt O43614); assay: as above; format: cell-based; details: CHO cells expressing human orexin-2 receptor, orexin-A agonist, geometric mean, read-out: IC50 Ox2
Summary of the method: as §1

human orexin-1 receptor, sequence (O43613 whole entry): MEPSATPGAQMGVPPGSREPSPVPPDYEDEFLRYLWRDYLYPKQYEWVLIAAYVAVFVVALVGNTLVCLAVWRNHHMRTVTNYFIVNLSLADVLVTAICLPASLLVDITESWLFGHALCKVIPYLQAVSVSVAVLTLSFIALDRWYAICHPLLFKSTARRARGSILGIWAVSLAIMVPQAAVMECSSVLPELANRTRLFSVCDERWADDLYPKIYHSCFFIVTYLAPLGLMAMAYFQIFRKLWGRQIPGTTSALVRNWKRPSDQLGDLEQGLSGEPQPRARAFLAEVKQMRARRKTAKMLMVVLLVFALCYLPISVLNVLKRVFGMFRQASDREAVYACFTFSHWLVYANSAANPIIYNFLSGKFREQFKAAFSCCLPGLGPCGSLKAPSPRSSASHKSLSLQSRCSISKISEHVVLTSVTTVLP
human orexin-2 receptor, sequence (O43614 whole entry): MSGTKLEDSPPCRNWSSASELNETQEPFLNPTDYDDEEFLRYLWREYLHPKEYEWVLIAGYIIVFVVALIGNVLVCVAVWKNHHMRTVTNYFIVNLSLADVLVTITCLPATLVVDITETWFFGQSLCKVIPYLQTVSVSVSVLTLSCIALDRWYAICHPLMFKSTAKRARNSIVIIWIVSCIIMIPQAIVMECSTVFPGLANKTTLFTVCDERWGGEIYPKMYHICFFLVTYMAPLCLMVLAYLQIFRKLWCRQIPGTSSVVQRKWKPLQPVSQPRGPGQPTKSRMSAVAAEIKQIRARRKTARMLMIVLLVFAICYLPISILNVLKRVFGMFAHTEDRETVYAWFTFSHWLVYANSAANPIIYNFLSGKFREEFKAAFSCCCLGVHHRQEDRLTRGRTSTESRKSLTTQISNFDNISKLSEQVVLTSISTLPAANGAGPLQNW

Structure (SMILES)	IC50 (human orexin-1 receptor)	IC50 (human orexin-2 receptor)
COc1cc2nc([C@@H]3[C@@H](C)CCN3C(=O)c3ncsc3-c3cccc(Cl)c3)[nH]c2cc1OC [Ex. 4.55]	167 nM	7970 nM
COc1cc2nc([C@@H]3[C@@H](C)CCN3C(=O)c3ccccc3-n3cccn3)[nH]c2cc1OC [Ex. 4.56]	283 nM	2620 nM
COc1cc2nc([C@@H]3[C@@H](C)CCN3C(=O)c3cc(C)ccc3-n3cccn3)[nH]c2cc1OC [Ex. 4.57]	59 nM	250 nM
COc1cc2nc([C@@H]3[C@@H](C)CCN3C(=O)c3ccccc3-c3ccc(C)cc3)[nH]c2cc1OC [Ex. 4.58]	66 nM	2170 nM
Cc1c(Cl)ccc2[nH]c([C@@H]3[C@@H](C)CCN3C(=O)c3ccccc3-n3nccn3)nc12 [Ex. 4.59]	6 nM	67 nM
Cc1c(Cl)ccc2[nH]c([C@@H]3[C@@H](C)CCN3C(=O)c3cc(Cl)ccc3-n3nccn3)nc12 [Ex. 4.60]	2 nM	65 nM
Cc1ccc(-c2ccccc2C(=O)N2CC[C@H](C)[C@H]2c2nc3c(C)c(Cl)ccc3[nH]2)cc1 [Ex. 4.61]	0.9 nM	72 nM
Cc1ccc(C(=O)N2CC[C@H](C)[C@H]2c2nc3c(C)c(Cl)ccc3[nH]2)c(-n2nccn2)c1 [Ex. 4.62]	3 nM	19 nM
Cc1nc(C(=O)N2CC[C@H](C)[C@H]2c2nc3c(C)c(Cl)ccc3[nH]2)c(-c2ccc(Cl)cc2)s1 [Ex. 4.63]	0.8 nM	122 nM
Cc1ccc(-n2cccn2)c(C(=O)N2CC[C@H](C)[C@H]2c2nc3c(C)c(Cl)ccc3[nH]2)c1 [Ex. 4.64]	5 nM	800 nM
Cc1ccc(-c2nc(C)sc2C(=O)N2CC[C@H](C)[C@H]2c2nc3c(C)c(Cl)ccc3[nH]2)cc1 [Ex. 4.65]	8 nM	207 nM
COc1ccc(-n2nccn2)c(C(=O)N2CC[C@H](C)[C@H]2c2nc3c(C)c(Cl)ccc3[nH]2)c1 [Ex. 4.66]	1 nM	23 nM
Cc1nc(C(=O)N2CC[C@H](C)[C@H]2c2nc3c(C)c(Cl)ccc3[nH]2)c(-c2cc(F)cc(F)c2)s1 [Ex. 4.67]	0.9 nM	251 nM
COc1ccc(-c2sc(C)nc2C(=O)N2CC[C@H](C)[C@H]2c2nc3c(C)c(Cl)ccc3[nH]2)cn1 [Ex. 4.69]	2 nM	191 nM
Cc1nc(C(=O)N2CC[C@H](C)[C@H]2c2nc3c(C)c(Cl)ccc3[nH]2)c(-c2ccc(F)cc2)s1 [Ex. 4.70]	0.6 nM	404 nM
Cc1cc2[nH]c([C@@H]3[C@@H](C)CCN3C(=O)c3cc(Cl)ccc3-n3nccn3)nc2cc1Cl [Ex. 4.71]	7 nM	133 nM
Cc1ccc(C(=O)N2CC[C@H](C)[C@H]2c2nc3cc(Cl)c(C)cc3[nH]2)c(-n2nccn2)c1 [Ex. 4.72]	4 nM	51 nM
Cc1ccc(-n2cccn2)c(C(=O)N2CC[C@H](C)[C@H]2c2nc3cc(Cl)c(C)cc3[nH]2)c1 [Ex. 4.73]	17 nM	1290 nM
COc1ccc(-n2nccn2)c(C(=O)N2CC[C@H](C)[C@H]2c2nc3cc(Cl)c(C)cc3[nH]2)c1 [Ex. 4.74]	4 nM	78 nM
Cc1cc2[nH]c([C@@H]3[C@@H](C)CCN3C(=O)c3c(-n4nccn4)ccc(C)c3F)nc2cc1Cl [Ex. 4.75]	8 nM	636 nM
Cc1cc2[nH]c([C@@H]3[C@@H](C)CCN3C(=O)c3ccccc3-n3nccn3)nc2cc1Cl [Ex. 4.76]	8 nM	113 nM
Cc1ccc(-c2ccccc2C(=O)N2CC[C@H](C)[C@H]2c2nc3cc(Cl)c(C)cc3[nH]2)cc1 [Ex. 4.77]	5 nM	790 nM
Cc1nc(C(=O)N2CC[C@H](C)[C@H]2c2nc3cc(Cl)c(C)cc3[nH]2)c(-c2ccc(Cl)cc2)s1 [Ex. 4.78]	3 nM	1630 nM
Cc1ccc(-c2nc(C)sc2C(=O)N2CC[C@H](C)[C@H]2c2nc3cc(Cl)c(C)cc3[nH]2)cc1 [Ex. 4.79]	18 nM	541 nM
Cc1nc(C(=O)N2CC[C@H](C)[C@H]2c2nc3cc(Cl)c(C)cc3[nH]2)c(-c2cc(F)cc(F)c2)s1 [Ex. 4.80]	3 nM	2020 nM
Cc1cc2nc([C@@H]3[C@@H](C)CCN3C(=O)c3cc(Cl)ccc3-n3nccn3)[nH]c2cc1C [Ex. 4.81]	4 nM	79 nM
Cc1ccc(C(=O)N2CC[C@H](C)[C@H]2c2nc3cc(C)c(C)cc3[nH]2)c(-n2nccn2)c1 [Ex. 4.82]	4 nM	32 nM

Second part, the compound after the results:

IC50 (human orexin-1 receptor)	IC50 (human orexin-2 receptor)	Structure (SMILES)
159 nM	2320 nM	Cc1ccc(-n2cccn2)c(C(=O)N2CC[C@H](C)[C@H]2c2nc3cc(C)c(C)cc3[nH]2)c1 [Ex. 4.83]
8 nM	58 nM	COc1ccc(-n2nccn2)c(C(=O)N2CC[C@H](C)[C@H]2c2nc3cc(C)c(C)cc3[nH]2)c1 [Ex. 4.84]
7 nM	43 nM	Cc1cc2nc([C@@H]3[C@@H](C)CCN3C(=O)c3ccccc3-n3nccn3)[nH]c2cc1C [Ex. 4.85]
7 nM	352 nM	Cc1ccc(-c2ccccc2C(=O)N2CC[C@H](C)[C@H]2c2nc3cc(C)c(C)cc3[nH]2)cc1 [Ex. 4.86]
4 nM	2080 nM	Cc1nc(C(=O)N2CC[C@H](C)[C@H]2c2nc3cc(C)c(C)cc3[nH]2)c(-c2ccc(Cl)cc2)s1 [Ex. 4.87]
11 nM	182 nM	Cc1ccc(-c2nc(C)sc2C(=O)N2CC[C@H](C)[C@H]2c2nc3cc(C)c(C)cc3[nH]2)cc1 [Ex. 4.88]
3 nM	2170 nM	Cc1nc(C(=O)N2CC[C@H](C)[C@H]2c2nc3cc(C)c(C)cc3[nH]2)c(-c2cc(F)cc(F)c2)s1 [Ex. 4.89]
6 nM	2350 nM	Cc1nc(C(=O)N2CC[C@H](C)[C@H]2c2nc3cc(C)c(C)cc3[nH]2)c(-c2ccc(F)cc2)s1 [Ex. 4.90]
17 nM	183 nM	Cc1cc(Cl)cc2[nH]c([C@@H]3[C@@H](C)CCN3C(=O)c3cc(Cl)ccc3-n3nccn3)nc12 [Ex. 4.91]
5 nM	212 nM	Cc1ccc(-c2ccccc2C(=O)N2CC[C@H](C)[C@H]2c2nc3c(C)cc(Cl)cc3[nH]2)cc1 [Ex. 4.92]
4 nM	74 nM	Cc1ccc(C(=O)N2CC[C@H](C)[C@H]2c2nc3c(C)cc(Cl)cc3[nH]2)c(-n2nccn2)c1 [Ex. 4.93]
3 nM	543 nM	Cc1nc(C(=O)N2CC[C@H](C)[C@H]2c2nc3c(C)cc(Cl)cc3[nH]2)c(-c2ccc(Cl)cc2)s1 [Ex. 4.94]
28 nM	1170 nM	Cc1ccc(-n2cccn2)c(C(=O)N2CC[C@H](C)[C@H]2c2nc3c(C)cc(Cl)cc3[nH]2)c1 [Ex. 4.95]
31 nM	996 nM	Cc1ccc(-c2nc(C)sc2C(=O)N2CC[C@H](C)[C@H]2c2nc3c(C)cc(Cl)cc3[nH]2)cc1 [Ex. 4.96]
4 nM	129 nM	COc1ccc(-n2nccn2)c(C(=O)N2CC[C@H](C)[C@H]2c2nc3c(C)cc(Cl)cc3[nH]2)c1 [Ex. 4.97]
4 nM	1300 nM	Cc1nc(C(=O)N2CC[C@H](C)[C@H]2c2nc3c(C)cc(Cl)cc3[nH]2)c(-c2cc(F)cc(F)c2)s1 [Ex. 4.98]

IC50 (human orexin-1 receptor)	IC50 (human orexin-2 receptor)	Structure (SMILES)
13 nM	981 nM	Cc1ccc(-n2nccn2)c(C(=O)N2CC[C@H](C)[C@H]2c2nc3c(C)cc(Cl)cc3[nH]2)c1F [Ex. 4.99]
6 nM	1280 nM	Cc1nc(C(=O)N2CC[C@H](C)[C@H]2c2nc3c(C)cc(Cl)cc3[nH]2)c(-c2ccc(F)cc2)s1 [Ex. 4.100]
18 nM	183 nM	Cc1cc(Cl)cc2[nH]c([C@@H]3[C@@H](C)CCN3C(=O)c3ccccc3-n3nccn3)nc12 [Ex. 4.101]
10 nM	103 nM	Cc1ccc(-c2ccccn2)c(C(=O)N2CC[C@H](C)[C@H]2c2nc3cc(Cl)c(C)cc3[nH]2)c1 [Ex. 4.102]
4 nM	178 nM	Cc1cc2[nH]c([C@@H]3[C@@H](C)CCN3C(=O)c3cc(Cl)ccc3-c3ccccc3)nc2cc1Cl [Ex. 4.103]
14 nM	1660 nM	Cc1ccc(-c2cccnc2)c(C(=O)N2CC[C@H](C)[C@H]2c2nc3cc(Cl)c(C)cc3[nH]2)c1 [Ex. 4.104]
5 nM	177 nM	Cc1cc2[nH]c([C@@H]3[C@@H](C)CCN3C(=O)c3cc(F)ccc3-c3ccccc3)nc2cc1Cl [Ex. 4.105]
23 nM	529 nM	Cc1cc2[nH]c([C@@H]3[C@@H](C)CCN3C(=O)c3cc(F)ccc3-c3ccccn3)nc2cc1Cl [Ex. 4.106]
47 nM	1760 nM	Cc1cc2[nH]c([C@@H]3[C@@H](C)CCN3C(=O)c3c(F)cccc3-c3cccnc3)nc2cc1Cl [Ex. 4.107]
7 nM	419 nM	Cc1cc2[nH]c([C@@H]3[C@@H](C)CCN3C(=O)c3cc(C#N)ccc3-c3ccccc3)nc2cc1Cl [Ex. 4.108]
3 nM	108 nM	Cc1ccc(C(=O)N2CC[C@H](C)[C@H]2c2nc3cc(Cl)c(C)cc3[nH]2)c(-c2ccccn2)c1 [Ex. 4.109]
13 nM	1520 nM	Cc1ccc(C(=O)N2CC[C@H](C)[C@H]2c2nc3cc(Cl)c(C)cc3[nH]2)c(-c2cccnc2)c1 [Ex. 4.110]
2 nM	110 nM	Cc1ccc(C(=O)N2CC[C@H](C)[C@H]2c2nc3cc(Cl)c(C)cc3[nH]2)c(-c2ccccc2)c1 [Ex. 4.111]
3 nM	1060 nM	Cc1cc2[nH]c([C@@H]3[C@@H](C)CCN3C(=O)c3c(F)cccc3-c3ccccc3)nc2cc1Cl [Ex. 4.112]
9 nM	2040 nM	Cc1cc2[nH]c([C@@H]3[C@@H](C)CCN3C(=O)c3c(-c4ccccn4)ccc(C)c3F)nc2cc1Cl [Ex. 4.113]
